From patent publication US20200000752A1, “Method for Treating Epilepsy” (Vanderbilt University, priority 2016, published 2020)

How the values were obtained:
[1] = test system: mutant GABAA α1β2γ2(R82Q) receptors; test: Expression of mutant α1β2γ2(R82Q) receptor subunits in HEK 293T cells (SDS-PAGE immunoblot); assay type: cell-based
Experimental: HEK 293T cells were transfected with α1, […] and the mutant γ2(R82Q) subunits at 1:1:1 cDNA ratio for 48 hrs. […] (FIG. 20A). Total cell lysates were analyzed by SDS-PAGE and the membrane was immunoblotted against al or γ2 subunits. (FIG. 20A). Protein IDVs of al or γ2 subunits were normalized to the cells without treatment (0) (FIG. 20B).

[2] = test system: epilepsy mouse models, AppSWE/PsenIdE9 mice; test: PTZ seizure severity (Racine scale) in different epilepsy mouse models and AppSWE/PsenIdE9 mice; assay type: in vivo; settings: 0.3 mg/kg IP daily×14 days; PTZ 50 mg/kg IP; n=5 per group
From the text: In this regard, an asterisk stands for the mutant protein aggregation in the neurons in related mouse models.

Plasma protein binding = assay type: in vitro ADME; settings: read-out: fraction unbound in plasma (fuplasma)
[3] = test system: mutant γ2(Q390X) subunit protein; test: Western blot of mutant γ2(Q390X) subunit protein in HEK 293T cells; assay type: cell-based; settings: 1 μm for 4 hours
Experimental: Total lysates from HEK 293T cells expressing wild-type α1β2γ2 (wt) or the mutant α1β2γ2(Q390X) (mut) receptors for 48 hrs from or from 1 year old wt or Gabrg2^+/Q390X (het) mouse brains were analyzed by western blot (FIGS. 10A and 10B).

Gabrg2^+/Q390X mice = test: Barnes maze, Gabrg2+/Q390X mice; assay type: in vivo, mouse; settings: 0.3 mg/kg IP for 2 weeks, 2-4 months old
Experimental: (§1) Flow chart in FIG. 13A depicts an overview of the Barnes maze. In training trials which are considered as learning test, time spent to locate the target hole was recorded and quantified for each day in each mouse genotype. In probe trials which are considered as memory test, an hour after the last training trial, each mouse was allotted a 300 sec session to find the target hole. […]. The total time spent at each of the 12 holes was assessed.

MDCKII cells = test: MDCKII bidirectional assay; assay type: in vitro ADME; settings: MDCK II bidirectional assay
From the text: (§2) MDCKII bidirectional assay was run in collaboration with Dr. Shaun Stauffer in Vanderbilt Institute of Chemical Biology (VICB) synthesis core who is a consultant on this project.

[4] = MDCKII bidirectional assay; assay type: in vitro ADME; settings: dog
From the text: as §2

Gabrb3^+/− mice = test: Barnes maze, Gabrb3+/- mice; assay type: in vivo, mouse; settings: 0.3 mg/kg IP for 2 weeks, 6-8 months old
Experimental: as §1

[5] = Hepatic microsomal clearance (human); assay type: in vitro ADME; settings: liver microsomes, pH 7.4
Experimental: Intrinsic clearance and predicted hepatic clearance: Intrinsic clearance will be determined using the substrate depletion approach. Reactions (0.3 mL) will be conducted using a Tecan EVO (San Jose, Calif.) in 96-well polypropylene cluster tubes with a temperature controlled water-jacketed aluminum plate holder held at 37° C. Incubations will be performed in triplicate in 0.1 M potassium phosphate buffer (pH 7.4), 3 mM MgCl2, 1 μM tizanidine, and 1 mg/mL liver microsomes. After incubation mixtures are equilibrated for 3 min at 37° C., reactions will be initiated with 10 mM NADPH to give a final NADPH concentration of 1 mM. At 0, 3, 7, 15, 25, and 45 min, a 25 μL aliquot will be removed from the reactions and delivered into 125 μL of acetonitrile containing an internal standard. The quench plates will then be centrifuged at 3,000×g for 10 min and an aliquot of the supernatants added to an injection plate with an equal volume of water. Samples will then be analyzed using LC/MS/MS.
Intrinsic clearance is calculated as: […]
Species-specific parameters for mouse and human liver protein content will be used. The predicted hepatic clearance will then be estimated using species-specific liver blood flow values: […]

GABAA receptor subunits = test: Surface GABAA receptor subunit expression in Scn1a+/- mice; assay type: in vivo, mouse; settings: 0.3 mg/kg IP for 14 days, cortex and thalamus
Experimental: The biotinylated surface proteins from either cortex (FIG. 15A) or thalamus (FIG. 15B) were analyzed by SDS-PAGE and immunoblotted with anti-GABAA receptor al subunit antibody. The protein IDVs of al subunits were normalized to its loading control and then to that in either cortex (cor) or thalamus (tha) in untreated wild-type mice (n==4) (FIGS. 15C and 15D). […] In FIGS. 15E and 15G, MJ stands for myoclonic jerks with behavioral correlation while GTCS for generalized tonic clonic seizures. The number of myoclonic jerks (MJ) and generalized tonic clonic seizures (GTCS) is the total number over 24 hrs. In G, mice were from the same litter, n=2 for each genotype.

[6] = PK of celastrol from IV, IP and PO studies in C57BL/6J mice; settings: male, mouse, whole blood
[7] = rats; cited from earlier work
[8] = target: T1, GABAA α1β2γ2(R82Q) receptors (Homo sapiens, UniProt P14867+P18507+P47870, R82Q); test: Patch clamp current amplitude, α1β2γ2(R82Q) receptors in HEK 293T cells; assay type: cell-based; settings: 1 μm, 4 hrs; GABA 1 mM
T1 construct: expressed in transfected cells; host or cells: HEK 293T
T1 sequence (P14867 28-456): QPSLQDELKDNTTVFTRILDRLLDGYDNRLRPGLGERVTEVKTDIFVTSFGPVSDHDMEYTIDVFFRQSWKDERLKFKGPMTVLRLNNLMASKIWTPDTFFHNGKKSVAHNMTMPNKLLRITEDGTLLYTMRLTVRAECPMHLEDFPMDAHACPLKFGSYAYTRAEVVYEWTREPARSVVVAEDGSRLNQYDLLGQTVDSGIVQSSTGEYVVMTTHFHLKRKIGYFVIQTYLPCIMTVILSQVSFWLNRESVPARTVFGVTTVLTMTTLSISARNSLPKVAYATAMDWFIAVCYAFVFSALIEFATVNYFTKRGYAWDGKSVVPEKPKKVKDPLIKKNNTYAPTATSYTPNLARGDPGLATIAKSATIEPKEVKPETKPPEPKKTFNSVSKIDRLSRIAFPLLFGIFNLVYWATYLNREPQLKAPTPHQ
T1 sequence (P47870 25-512 limits assumed): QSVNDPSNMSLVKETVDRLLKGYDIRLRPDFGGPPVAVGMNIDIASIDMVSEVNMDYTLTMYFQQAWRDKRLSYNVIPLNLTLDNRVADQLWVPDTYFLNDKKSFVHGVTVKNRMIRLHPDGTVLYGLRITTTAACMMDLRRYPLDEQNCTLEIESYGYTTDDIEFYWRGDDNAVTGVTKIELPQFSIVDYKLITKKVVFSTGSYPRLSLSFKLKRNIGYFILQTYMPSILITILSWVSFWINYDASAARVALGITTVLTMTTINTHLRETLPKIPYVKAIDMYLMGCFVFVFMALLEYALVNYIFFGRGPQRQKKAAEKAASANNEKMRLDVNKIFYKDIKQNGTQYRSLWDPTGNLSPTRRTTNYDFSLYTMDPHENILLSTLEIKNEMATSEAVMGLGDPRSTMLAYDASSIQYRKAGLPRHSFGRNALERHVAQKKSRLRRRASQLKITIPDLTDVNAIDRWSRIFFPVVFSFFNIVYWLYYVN
T1 sequence (P18507 40-467 isoform P18507-1 R82Q limits assumed): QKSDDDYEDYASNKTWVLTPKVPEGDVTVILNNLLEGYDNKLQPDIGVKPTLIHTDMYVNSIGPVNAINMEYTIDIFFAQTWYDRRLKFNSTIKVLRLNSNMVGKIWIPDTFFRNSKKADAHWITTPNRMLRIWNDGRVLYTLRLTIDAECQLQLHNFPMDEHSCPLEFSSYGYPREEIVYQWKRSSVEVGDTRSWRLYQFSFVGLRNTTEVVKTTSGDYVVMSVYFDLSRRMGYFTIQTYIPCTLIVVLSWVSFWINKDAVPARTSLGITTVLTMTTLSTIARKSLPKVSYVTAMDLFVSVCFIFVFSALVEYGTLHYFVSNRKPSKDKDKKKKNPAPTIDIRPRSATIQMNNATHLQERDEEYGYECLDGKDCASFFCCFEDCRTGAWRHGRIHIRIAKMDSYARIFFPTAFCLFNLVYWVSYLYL
Experimental: (§3) HEK 293T cells were transfected with the human GABAA receptor α1, β2 subunits with the wild-type γ2s, the mutant γ2s(Q390X) or γ2s(R82Q) subunits for 48 hrs. […] A. Lifted whole cells were recorded with the application of GABA 1 mM for 6 sec. Cells was voltage clamped at −50 mV.
(§4) HEK 293T cells were transfected with the human GABAA receptor α1, β2 subunits with the wild-type γ2s, the mutant γ2s(Q390X) or γ2s(R82Q) subunits for 48 hrs.

[9] = target: T2, GABAA α1β2γ2(Q390X) receptors (Homo sapiens, UniProt P14867+P18507+P47870, DEL390-467); test: Patch clamp current amplitude, α1β2γ2(Q390X) receptors in HEK 293T cells; assay type: cell-based; settings: 1 μm, 4 hrs; GABA 1 mM
T2 construct: expressed in transfected cells; host or cells: HEK 293T
T2 sequence (P14867 28-456, stated change not applied): as the sequence (P14867 28-456) above
T2 sequence (P47870 26-512, stated change not applied): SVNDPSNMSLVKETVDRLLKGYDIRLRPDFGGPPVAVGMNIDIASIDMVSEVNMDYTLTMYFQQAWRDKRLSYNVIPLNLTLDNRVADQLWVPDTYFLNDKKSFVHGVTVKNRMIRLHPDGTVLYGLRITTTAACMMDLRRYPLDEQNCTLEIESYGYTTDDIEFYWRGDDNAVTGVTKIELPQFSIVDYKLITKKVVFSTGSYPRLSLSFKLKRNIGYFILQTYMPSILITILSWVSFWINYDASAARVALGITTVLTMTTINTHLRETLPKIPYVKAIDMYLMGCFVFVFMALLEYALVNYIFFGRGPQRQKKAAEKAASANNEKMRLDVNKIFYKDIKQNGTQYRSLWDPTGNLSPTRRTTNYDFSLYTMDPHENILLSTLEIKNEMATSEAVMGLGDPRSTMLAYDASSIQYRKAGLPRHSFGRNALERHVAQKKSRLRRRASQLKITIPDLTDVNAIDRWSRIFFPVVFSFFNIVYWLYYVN
T2 sequence (P18507 40-389 isoform P18507-1 limits assumed, stated change not applied): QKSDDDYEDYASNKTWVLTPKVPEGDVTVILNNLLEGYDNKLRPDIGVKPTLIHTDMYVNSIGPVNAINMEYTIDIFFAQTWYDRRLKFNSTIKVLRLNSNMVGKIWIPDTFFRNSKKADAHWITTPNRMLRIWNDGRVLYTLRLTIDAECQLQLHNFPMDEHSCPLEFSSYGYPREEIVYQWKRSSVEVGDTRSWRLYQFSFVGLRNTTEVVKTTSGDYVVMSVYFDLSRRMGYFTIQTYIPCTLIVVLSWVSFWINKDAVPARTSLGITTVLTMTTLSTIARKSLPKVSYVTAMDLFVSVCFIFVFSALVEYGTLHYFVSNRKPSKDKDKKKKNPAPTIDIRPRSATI
Experimental: as §3, §4

CC1=C(O)C(=O)C=C2C1=CC=C1[C@@]2(C)CC[C@@]2(C)[C@@H]3C[C@](C)(C(=O)O)CC[C@]3(C)CC[C@]12C [Celastrol, 3-Hydroxy-9β,13α-dimethyl-2-oxo-24,25,26-trinoroleana-1(10),3,5,7-tetraen-29-oic acid]
expression of mutant α1β2γ2(R82Q) receptors ([1]; applied 4 hrs before harvest): increased | enhancing GABAA receptor subunit expression, comparison ([1]; different concentrations, 4 hrs): more effective in enhancing GABAA receptor subunit expression than Stiripentol | seizure severity [2]: reduced seizure severity | fraction unbound (Plasma protein binding): < 0.022 | mutant γ2(Q390X) subunit protein [3]: reduced | time spent at target hole in probe trial (Gabrg2^+/Q390X mice): spent more time in the target hole area | efflux (MDCKII cells): no significant efflux | Papp ([4]; MDCK, MDCKII cells, read-out: apparent membrane permeability Papp): ≥ 1 ×10⁻⁶ cm/s | Papp A→B ([4]; MDCK II bidirectional assay): 56.5 ×10⁻⁶ cm/s | time spent at target hole in probe trial (Gabrb3^+/− mice): spent more time in the target hole area | CLint scaled [5]: 31 mL/min/kg | surface GABAA receptor subunit expression (GABAA receptor subunits): Increased | Number SWDs (Scn1a^+/− mice; SWDs over 1 sec, 30 min after PTZ 50 mg/kg, n=2, celastrol 0.3 mg/kg intermittent (8th day of drug holiday), diazepam 0.3 mg/kg, stiripentol 150 mg/kg, saline 21): 2 | efficacy in reducing seizure severity versus comparators (Scn1a^+/− mice; chronic intermittent dosing 0.3 mg/kg IP): Better Efficacy in Reducing Seizure Severity than Diazepam or Stiripentol | bioavailability [6]: ~20% | bioavailability ([6]; 10 mg/kg): 20% | oral bioavailability (reported) [7]: 17.1% | current amplitude [8]: increased | current amplitude [9]: increased
